Data on two molecules can be found in US11331299B2, “Medicinal use of serrulatane diterpenes” (The University of Sydney, priority 2016, dated 2022).

SMILES strings stand for the structures. “And” between values parts separate entries of the source, which are not always exact repeats. Identical values can stand only once. Like-named read-outs stand apart in the source and are kept apart here.

For one data set, the target named is COX1 (h) (Homo sapiens, UniProt P23219). As to the kind of experiment: Bioprint enzyme assay. In kind it is biochemical.
The target of the next data set is COX2 (h) (Homo sapiens, UniProt P35354). As to the kind of experiment: Bioprint enzyme assay. In kind it is biochemical.
Another data set concerns HMEC. Description: OncoPanel normal cell proliferation assay (3-day). As to conditions: Homo sapiens, 72 h, HMEC, mammary epithelial, 3-day incubation. It is filed as cell-based.
Another data set has as its target adenosine A3 (h) (Homo sapiens, UniProt P0DMS8). As to the kind of experiment: Bioprint radioligand binding assay.
The subject of data set [1] is primary human keratinocytes. As to the kind of experiment: Keratinocyte cell viability, CCL2 assay (assay number 1243). It is filed as cell-based. As to conditions: Homo sapiens, Keratinocyte; read-out: Inhibition of cell viability, Rel EC50.
Assay in data set [2]: as above
In kind it is cell-based, human. The settings on record: human; read-out: Inhibition of cell viability, Max Effect.

For a further data set, the target named is Lipid Peroxidase. As to the kind of experiment: Lipid Peroxidase. In kind it is biochemical, Dunkin Hartley Guinea pig. The settings on record: concentration-response 10 to 0.01 μM.
The target in data set [3] is cholecystokinin CCK1 (CCKA) (h) (Homo sapiens, UniProt P32238). Description: Bioprint radioligand binding assay.
Data set [4] relates to CCL2 release from IL-4, IL-13, IL-22 and IFN-γ-stimulated primary human keratinocytes. Description: Keratinocyte CCL2 release (assay number 1280). It is filed as cell-based.
Data set [5] is classed as in vivo, female NOD/SCID mice. As to conditions: for Body Weight: single animals No. 1-3. As for the experimental part:
Two studies were conducted by Eurofins Panlabs Taiwan, Ltd. The purpose of Study 1 was to assess the possible adverse effects of Compound 1 alone or in combination with […] in Maximum Tolerated Dose (MTD) assay. The purpose of Study 2 is a follow-up study performed at escalating doses.
Compound 1 was dissolved in 10% Tween 20/90% PBS or 20% Tween 20/80% PBS for IP injections. Compound 1 was administrated alone or in combination with […] at a dosing volume of 10 or 20 mL/kg for each substance.
For mortality, test substance (Compound 1; 100 mg/kg) alone or in combination with […] (8.75, 17.5, or 35 mg/kg; given on the same day) was administered to mice by IP injection to evaluate the possible adverse effects in MTD assay. […]. […]
A follow-up MTD study was performed to evaluate for the adverse effects of the test substance (Compound 1) at escalating doses alone or in combination with […] (17.5 mg/kg) via IP in a group of 3 female NOD/SCID mice at 6-7 weeks of age.
For mortality, treatment with Compound 1 at escalating doses (200 mg/kg) alone and in combination with […] (17.5 mg/kg; given on the same day) were administered by IP injection to a group of 3 female NOD/SCID mice at 6-7 weeks of age. The mortality was monitored at 30 min and again at 3, 24, 48 and 72 hours after compound administrations.
For body weight, test substance (Compound 1) at escalating doses (200 mg/kg) alone or in combination with […] (17.5 mg/kg; given on the same day) were administered by IP injection to a group of 3 female NOD/SCID mice at 6-7 weeks of age. The body weight of each animal was measured and recorded daily for 3 days.
For behavioral, symptomatic i.e. neurological and autonomic signs, test substance (Compound 1; 200 mg/kg) alone or in combination with […] (17.5 mg/kg; given on the same day) were administered by IP injection to a group of 3 female NOD/SCID mice at 6-7 weeks of age. The animals were then observed for presences of acute toxic symptoms and autonomic effects for 30 min after the first dose.

For another data set, the system named is MLL4(h) complex. The settings on record: read-out: Reference: (IC50 not given); cited from earlier work.
The target of another data set is PRMT3 (h) (Homo sapiens, UniProt O60678). The settings on record: read-out: Reference: (IC50 not given); cited from earlier work.
The next data set deals with PRDM9 (h) (Homo sapiens, UniProt Q9NQV7). The settings on record: read-out: Reference: (IC50 not given); cited from earlier work.
For another data set, the target named is T1, SETD7 (h) (Homo sapiens, UniProt Q8WTS6).
T1 sequence (Q8WTS6 1-366): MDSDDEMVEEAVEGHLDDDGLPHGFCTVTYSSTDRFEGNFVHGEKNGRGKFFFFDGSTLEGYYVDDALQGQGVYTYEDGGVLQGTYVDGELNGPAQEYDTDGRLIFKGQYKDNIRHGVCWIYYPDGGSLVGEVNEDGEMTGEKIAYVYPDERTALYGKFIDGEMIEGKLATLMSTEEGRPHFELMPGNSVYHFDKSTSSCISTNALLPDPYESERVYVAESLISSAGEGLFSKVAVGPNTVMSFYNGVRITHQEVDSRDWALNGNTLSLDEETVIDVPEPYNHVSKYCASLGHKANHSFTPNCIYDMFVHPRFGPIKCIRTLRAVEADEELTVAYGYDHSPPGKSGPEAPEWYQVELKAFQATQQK
As to conditions: read-out: Reference: (IC50 not given); cited from earlier work.

Where [6] appears, read: read-out: % inhibition of control enzyme activity.
Where [7] appears, read: read-out: % inhibition of control specific binding.
Where [8] appears, read: 200 mg/kg IP, individual mice No. 1-3, 30 min after first dose, Study 2 Round 1.
Wherever Autonomic signs: Death is given: key: −: no effects; ±: Slight to moderate effects; +: Severe effects; ↓: Low; D: Deep.
Wherever Autonomic signs: Dec. Palpebral Size is given: key: −: no effects; ±: Slight to moderate effects; +: Severe effects; ↓: Low; D: Deep.
Wherever Autonomic signs: Diarrhea is given: key: −: no effects; ±: Slight to moderate effects; +: Severe effects; ↓: Low; D: Deep.
Wherever Autonomic signs: Inc. Palpebral Size is given: key: −: no effects; ±: Slight to moderate effects; +: Severe effects; ↓: Low; D: Deep.

Sequence of cholecystokinin CCK1 (CCKA) (h) (P32238 whole entry): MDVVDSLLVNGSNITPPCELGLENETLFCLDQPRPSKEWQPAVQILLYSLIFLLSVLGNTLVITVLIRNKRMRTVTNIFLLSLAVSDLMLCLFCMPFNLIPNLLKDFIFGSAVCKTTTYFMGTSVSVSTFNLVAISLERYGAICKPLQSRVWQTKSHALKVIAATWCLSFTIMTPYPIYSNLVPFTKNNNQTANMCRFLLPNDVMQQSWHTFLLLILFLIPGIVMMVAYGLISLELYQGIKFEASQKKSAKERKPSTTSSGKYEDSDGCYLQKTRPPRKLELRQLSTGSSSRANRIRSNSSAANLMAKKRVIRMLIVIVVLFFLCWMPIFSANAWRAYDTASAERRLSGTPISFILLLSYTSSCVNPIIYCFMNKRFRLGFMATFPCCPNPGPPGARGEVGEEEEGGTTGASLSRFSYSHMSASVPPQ
Sequence of adenosine A3 (h) (P0DMS8 whole entry): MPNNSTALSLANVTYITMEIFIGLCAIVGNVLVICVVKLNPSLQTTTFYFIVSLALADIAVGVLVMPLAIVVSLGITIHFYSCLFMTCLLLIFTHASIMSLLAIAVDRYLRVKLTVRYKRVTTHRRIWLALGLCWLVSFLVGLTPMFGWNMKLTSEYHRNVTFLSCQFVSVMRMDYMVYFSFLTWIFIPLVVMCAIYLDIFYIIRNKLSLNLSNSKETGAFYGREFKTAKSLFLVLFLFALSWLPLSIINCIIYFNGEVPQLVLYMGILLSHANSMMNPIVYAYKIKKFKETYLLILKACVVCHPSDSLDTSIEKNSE
Sequence of COX2 (h) (P35354 18-604): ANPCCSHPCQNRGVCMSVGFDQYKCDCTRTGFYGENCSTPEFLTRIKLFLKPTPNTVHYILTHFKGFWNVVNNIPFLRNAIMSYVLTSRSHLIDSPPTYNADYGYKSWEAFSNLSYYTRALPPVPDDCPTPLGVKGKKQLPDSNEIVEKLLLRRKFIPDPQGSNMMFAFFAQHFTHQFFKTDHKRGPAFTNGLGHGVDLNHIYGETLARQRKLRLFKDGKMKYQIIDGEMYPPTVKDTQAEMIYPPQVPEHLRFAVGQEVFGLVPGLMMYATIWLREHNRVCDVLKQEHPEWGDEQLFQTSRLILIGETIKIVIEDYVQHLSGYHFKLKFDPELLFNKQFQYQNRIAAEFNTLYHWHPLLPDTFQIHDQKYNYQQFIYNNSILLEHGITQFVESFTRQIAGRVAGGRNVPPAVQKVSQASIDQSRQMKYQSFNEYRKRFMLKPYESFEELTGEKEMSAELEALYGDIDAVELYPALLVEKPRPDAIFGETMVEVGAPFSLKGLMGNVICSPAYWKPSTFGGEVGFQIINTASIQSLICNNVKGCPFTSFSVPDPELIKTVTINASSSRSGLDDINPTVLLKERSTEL
Sequence of COX1 (h) (P23219 24-599): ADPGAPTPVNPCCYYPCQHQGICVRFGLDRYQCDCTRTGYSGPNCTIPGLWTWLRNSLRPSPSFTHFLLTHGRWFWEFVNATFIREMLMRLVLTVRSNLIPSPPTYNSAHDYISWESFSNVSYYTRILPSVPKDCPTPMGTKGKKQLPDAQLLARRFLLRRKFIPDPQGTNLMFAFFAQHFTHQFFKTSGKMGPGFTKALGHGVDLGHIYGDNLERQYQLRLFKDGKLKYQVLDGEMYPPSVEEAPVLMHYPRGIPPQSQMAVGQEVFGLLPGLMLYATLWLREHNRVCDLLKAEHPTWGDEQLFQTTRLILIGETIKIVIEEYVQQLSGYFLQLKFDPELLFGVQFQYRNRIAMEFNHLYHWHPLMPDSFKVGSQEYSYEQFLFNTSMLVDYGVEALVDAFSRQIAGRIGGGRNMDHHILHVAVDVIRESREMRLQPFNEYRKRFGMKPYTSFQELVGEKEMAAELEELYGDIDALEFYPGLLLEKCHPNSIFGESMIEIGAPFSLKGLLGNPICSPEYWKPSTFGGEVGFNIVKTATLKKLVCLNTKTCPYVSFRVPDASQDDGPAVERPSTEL
Sequence of PRMT3 (h) (O60678 whole entry): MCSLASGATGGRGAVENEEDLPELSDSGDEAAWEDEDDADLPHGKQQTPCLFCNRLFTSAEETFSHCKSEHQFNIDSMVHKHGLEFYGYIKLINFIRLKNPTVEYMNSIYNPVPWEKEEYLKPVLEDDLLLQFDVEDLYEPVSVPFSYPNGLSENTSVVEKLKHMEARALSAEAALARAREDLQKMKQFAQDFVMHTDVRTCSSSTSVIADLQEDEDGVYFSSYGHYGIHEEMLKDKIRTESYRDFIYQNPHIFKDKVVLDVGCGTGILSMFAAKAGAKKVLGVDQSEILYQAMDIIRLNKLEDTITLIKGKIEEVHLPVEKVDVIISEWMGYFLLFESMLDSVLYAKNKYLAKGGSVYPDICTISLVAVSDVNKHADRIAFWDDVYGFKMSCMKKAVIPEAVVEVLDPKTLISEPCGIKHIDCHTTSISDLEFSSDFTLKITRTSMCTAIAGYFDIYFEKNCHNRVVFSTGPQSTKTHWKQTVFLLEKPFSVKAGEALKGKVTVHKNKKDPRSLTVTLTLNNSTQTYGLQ
Sequence of PRDM9 (h) (Q9NQV7 whole entry): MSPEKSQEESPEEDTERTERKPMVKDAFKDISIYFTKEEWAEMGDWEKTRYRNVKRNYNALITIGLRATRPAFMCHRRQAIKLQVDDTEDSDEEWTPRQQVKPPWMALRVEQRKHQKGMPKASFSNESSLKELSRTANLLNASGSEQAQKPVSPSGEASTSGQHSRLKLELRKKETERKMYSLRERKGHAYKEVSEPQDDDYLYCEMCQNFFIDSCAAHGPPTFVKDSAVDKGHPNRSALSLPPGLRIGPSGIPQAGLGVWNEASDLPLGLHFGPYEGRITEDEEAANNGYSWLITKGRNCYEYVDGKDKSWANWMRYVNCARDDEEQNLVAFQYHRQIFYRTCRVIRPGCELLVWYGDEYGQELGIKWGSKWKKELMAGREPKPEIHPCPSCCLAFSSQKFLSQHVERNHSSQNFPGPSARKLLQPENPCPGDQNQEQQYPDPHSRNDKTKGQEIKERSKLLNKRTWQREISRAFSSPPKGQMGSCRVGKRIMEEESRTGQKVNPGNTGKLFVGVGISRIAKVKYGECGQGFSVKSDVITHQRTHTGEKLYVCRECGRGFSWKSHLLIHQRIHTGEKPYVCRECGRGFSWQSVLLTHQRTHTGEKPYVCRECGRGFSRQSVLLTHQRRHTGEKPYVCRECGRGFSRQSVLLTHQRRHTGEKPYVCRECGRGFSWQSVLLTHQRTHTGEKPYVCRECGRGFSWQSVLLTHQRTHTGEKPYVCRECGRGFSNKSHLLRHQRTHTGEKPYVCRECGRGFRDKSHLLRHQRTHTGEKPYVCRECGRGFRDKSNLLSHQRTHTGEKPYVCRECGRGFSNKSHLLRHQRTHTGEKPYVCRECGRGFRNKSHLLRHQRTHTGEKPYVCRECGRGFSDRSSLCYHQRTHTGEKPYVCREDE

By inhibition is commonly meant the change of the read-out against control, counted positive when it falls. One may read the EC50 as the concentration at which the effect is half-maximal. By GI50 is commonly meant the concentration giving 50% growth inhibition. As usually defined, the IC50 is the concentration that gives 50% inhibition. With `CC(C)=CCC[C@H](CO)[C@@H]1CC[C@@H](C)c2c1cc(C)c(O)c2O` [Compound 1, 7,8,18-trihydroxyserrulat-14-ene], the inhibition at 10 µM on COX1 (h) (COX1(h), read-out: % Inhibition of Control Values) came to 81%; at COX1 (h) (setting [6]), 81%; on COX2 (h) (COX2(h), read-out: % Inhibition of Control Values), 74%; at COX2 (h) (setting [6]) it was 74%; at adenosine A3 (h) (ADENOSINE A3 (h) (agonist radioligand), read-out: % Inhibition of Control Specific Binding), 92%; on adenosine A3 (h) (setting [7]), 92%. Further, the inhibition at 10 µM came to 81% in [3] (CHOLECYSTOKININ CCK1 (CCKA) (h) (agonist radioligand), read-out: % Inhibition of Control Specific Binding) and 81% in data set [3] (setting [7]). The EC50 was 30 µM with HMEC (read-out: Cell Count EC50); 0.708 µM in [1]; 0.0922 µM in data set [4] (read-out: Inhibition of CCL2 release, Rel EC50). Besides, in the data set with HMEC (read-out: Cell Count GI50), the GI50 was 6.39 µM. Also, the values for the IC50 in the data set with HMEC (read-out: Cell Count IC50) and against Lipid Peroxidase were 30 µM and 1.47 µM, respectively. Also, the cytotoxicity in [2] was 103%. Further, the Emax in data set [4] (read-out: Inhibition of CCL2 release, Max Effect) turned out to be 101%. For the same molecule, the “Autonomic signs: Body Temperature” value in data set [5] (setting [8]) is “↓+”. Further, the “Autonomic signs: Death” value in data set [5] (setting [8]) is given as “−”. Moreover, the “Autonomic signs: Dec. Palpebral Size” value in [5] (setting [8]) is reported as “−”. In data set [5] (setting [8]), the “Autonomic signs: Diarrhea” value is “−”. In addition, the “Autonomic signs: Inc. Palpebral Size” value in data set [5] (setting [8]) is reported as “−”. Moreover, in data set [5] (setting [8]), the “Autonomic signs: Lacrimation” value is listed as “−”. Besides, the “Autonomic signs: Others” value in [5] (setting [8]) is “−”. For the same molecule, in data set [5] (setting [8]), the “Autonomic signs: Piloerection” value is “−”. In data set [5] (setting [8]), the “Autonomic signs: Salivation F.V.” value was “−”. Also, the “Autonomic signs: Skin Color” value in [5] (setting [8]) is “−”. Further, the adverse effects result in [5] (Study 1, Compound 1 100 mg/kg IP alone) is “did not elicit significant adverse effects”. For the same molecule, the survival entry in data set [5] (Study 1, Compound 1 100 mg/kg IP alone, 72-hour observation period) is “All test animals survived”. Besides, the “Response (death/test)” value in data set [5] (Study 1, IP, 100 mg/kg, 30 min) is recorded as 0/3; in data set [5] (Study 1, IP, 100 mg/kg, 3 hrs), 0/3; in data set [5] (Study 1, IP, 100 mg/kg, Day 1), 0/3; in data set [5] (Study 1, IP, 100 mg/kg, Day 2), 0/3; in [5] (Study 1, IP, 100 mg/kg, Day 3), 0/3; in data set [5] (Study 2, IP, 200 mg/kg, 30 min) it was 0/3. In addition, the “Response (death/test)” value in [5] (Study 2, IP, 200 mg/kg, 3 hrs) is given as 0/3; in data set [5] (Study 2, IP, 200 mg/kg, Day 1), 1/3; in data set [5] (Study 2, IP, 200 mg/kg, Day 2) it was 3/3; in data set [5] (Study 2, IP, 200 mg/kg, Day 3), 3/3. Further, in data set [5] (Study 2, 200 mg/kg IP, 30 min after dose), the autonomic sign entry was “Hypothermia”. Further, the “Body Weight” value is 22 g and 21 g (2×) in data set [5] (Study 2, IP, 200 mg/kg, Day 0, 200 mg/kg); 21 g in data set [5] (Study 2, IP, 200 mg/kg, Day 1). The “B.W.” value in [5] (Study 2 Round 1, signs table, IP, 200 mg/kg, animals No. 1-3) was 22 g and 21 g.
With `Nc1ncnc2c1ncn2[C@@H]1O[C@H](CSCC[C@H](N)C(=O)O)[C@@H](O)[C@H]1O` [SAH], the IC50 with MLL4(h) complex is 0.97 µM; on PRMT3 (h) it was 0.86 µM; on PRDM9 (h), 370 µM; on SETD7 (h) it was 24 µM.
